Measured values reported in patent publication US20050137135A1 (priority 2002, published 2005).
Square brackets hold non-standard residues; d marks the D form. Ends that are not written are not given here. Peptide text beside a SMILES is read from it. Ahx = NCCCCCC(=O)O

Columns and labels:
[1] = target: T1, rat pancreatic islet (wild type) GIP-receptor (Rattus norvegicus, UniProt P43219); assay: biochemical; assay type: binding; settings: for inhibition at 20 µM: read-out: Receptor Binding % Displacement at 20 μM; for Percent displacement of 125I-GIP from wtGIPR cells: 50 micromolar peptide analogue, FIG. 9; for Receptor Binding % Displacement at 10 μM: 10 μM peptide, 125I-GIP
T1 construct: expressed in transfected cells; host or cells: CHO-K1 (Chinese hamster ovary)
T1 sequence (P43219 19-455): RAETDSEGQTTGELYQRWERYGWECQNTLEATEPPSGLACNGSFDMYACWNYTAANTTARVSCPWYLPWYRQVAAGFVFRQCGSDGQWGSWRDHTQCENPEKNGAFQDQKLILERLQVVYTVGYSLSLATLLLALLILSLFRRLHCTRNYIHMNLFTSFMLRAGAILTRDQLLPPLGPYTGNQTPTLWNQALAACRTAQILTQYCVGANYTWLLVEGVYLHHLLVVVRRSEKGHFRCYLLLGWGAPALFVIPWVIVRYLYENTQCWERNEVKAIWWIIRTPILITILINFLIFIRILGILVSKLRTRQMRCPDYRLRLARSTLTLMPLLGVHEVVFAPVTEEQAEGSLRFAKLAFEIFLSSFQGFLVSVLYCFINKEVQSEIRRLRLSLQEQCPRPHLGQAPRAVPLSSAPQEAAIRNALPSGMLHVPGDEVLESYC
Protocol: (§1) Cells were cultured in DMEM/F12, supplemented with 10% newborn calf serum, 50 units/ml penicillin G, and 50 μg/ml streptomycin (Culture media and antibiotics from Gibco BRL, Life Technologies). Cells were grown in 75 cm^2 flasks until 80-90% confluent, when they were split and seeded onto 24 well plates at a density of 50,000 cells/well. Experiments were carried out 48 h later.
Binding studies using ^125I-labeled spGIP1-42, purified by high performance liquid chromatography (HPLC), were performed essentially as described previously-[21]. wtGIP-R1 Cells (1-5×10^5/well) were washed twice at 4° C. in binding buffer (BB), consisting of DMEM/F12 (GIBCO), 15 mM HEPES, 0.1% bovine serum albumin (BSA), 1% Trasylol (aprotinin; Bayer), pH 7.4. They were incubated for 12-16 h at 4° C. with ^125I-spGIP (50,000 cpm) in the presence or absence of unlabeled GIP1-42 or analogue. Following incubation, cells were washed twice with ice cold buffer, solubilized with 0.1 M NaOH (1 ml), and transferred to culture tubes for counting of cell-associated radioactivity. Nonspecific binding was defined as that measured in the presence of 1 μM GIP1-42 or GIP1-30, and specific binding expressed as % of binding in the absence of competitor (% B/Bo).

[2] = target: T1, rat pancreatic islet (wild type) GIP-receptor; assay: cAMP production in CHO-K1 cells expressing the GIP-receptor (wtGIP-R1 cells); assay type: cell-based; settings: for cAMP Production Max. cAMP (Fold Basal): Table 3, cyclic AMP stimulated by 20 μM peptide if plateau levels were not achieved; for cAMP Production (Fold Basal) 10 μM: 10 μM peptide; for cAMP Production (Fold Basal) 10 μM / cAMP Production (Fold Basal) 20 μM: basal cyclic AMP = 2.737 ± 0.079 fmol/1000 cells; for cAMP Production (Fold Basal) 20 μM: 20 μM peptide
Protocol: as §1
Cells were extracted with 70% ethanol and cAMP levels measured by radioimmunoassay (Biomedical Technologies, Stoughton, Mass.). Data are expressed as fmol/1000 cells or % maximal GIP1-42-stimulated cAMP production (inhibition experiments).

Row | Compound | inhibition at 20 µM [1] | cAMP Production Max. cAMP (Fold Basal) [2] | further results
1 | CC[C@H](C)[C@H](NC(=O)[C@H](CO)NC(=O)[C@H](Cc1ccc(O)cc1)NC(=O)[C@H](CC(=O)O)NC(=O)[C@H](CO)NC(=O)[C@@H](NC(=O)[C@H](Cc1ccccc1)NC(=O)[C@@H](NC(=O)CNC(=O)[C@H](CCC(=O)O)NC(=O)[C@H](C)NC(=O)[C@@H](N)Cc1ccc(O)cc1)[C@@H](C)O)[C@@H](C)CC)C(=O)N[C@@H](C)C(=O)N[C@@H](CCSC)C(=O)NCCCCCC(=O)N[C@@H](CCC(N)=O)C(=O)N[C@@H](CCC(N)=O)C(=O)N[C@@H](CC(=O)O)C(=O)N[C@@H](Cc1ccccc1)C(=O)N[C@H](C(=O)N[C@@H](CC(N)=O)C(=O)N[C@@H](Cc1c[nH]c2ccccc12)C(=O)N[C@@H](CC(C)C)C(=O)N[C@@H](CC(C)C)C(=O)N[C@@H](C)C(=O)N[C@@H](CCC(N)=O)C(=O)N[C@@H](CCCCN)C(N)=O)C(C)C [GIP(1-14)(Ahx)1(19-30)NH2] (H-YAEGTFISDYSIAM[Ahx]QQDFVNWLLAQK-NH2; N-terminus assumed) | 86.1 ± 1.9% | 102.1 ± 5.0 Fold Basal | –
2 | YAAGTFISDYSIAM-OH [A3] | – | – | Percent displacement of 125I-GIP from wtGIPR cells [1]: unable to displace measurable
3 | YAEGAFISDYSIAM-OH [A5] | – | – | Percent displacement of 125I-GIP from wtGIPR cells [1]: unable to displace measurable
4 | KIRQQDFVNWLLAQK-NH2 [16-30NH2] | – | – | cAMP Production (Fold Basal) 10 μM [2]: 1.04 ± 0.06 Fold Basal; cAMP Production (Fold Basal) 20 μM [2]: 0.80 ± 0.02 Fold Basal
5 | CC(C)C[C@H](NC(=O)[C@H](CC(C)C)NC(=O)[C@H](Cc1c[nH]c2ccccc12)NC(=O)[C@H](CC(N)=O)NC(=O)[C@@H](NC(=O)[C@H](Cc1ccccc1)NC(=O)[C@H](CC(=O)O)NC(=O)[C@H](CCC(N)=O)NC(=O)[C@H](CCC(N)=O)NC(=O)CCCCCNC(=O)CCCCCNC(=O)[C@H](Cc1ccccc1)NC(=O)[C@@H](NC(=O)CNC(=O)[C@H](CCC(=O)O)NC(=O)[C@H](C)NC(=O)[C@@H](N)Cc1ccc(O)cc1)[C@@H](C)O)C(C)C)C(=O)N[C@@H](C)C(=O)N[C@@H](CCC(N)=O)C(=O)N[C@@H](CCCCN)C(N)=O [GIP(1-6)(Ahx)2(19-30)NH2] (H-YAEGTF[Ahx][Ahx]QQDFVNWLLAQK-NH2; N-terminus assumed) | 75.3 ± 3.3% | 2.55 ± 0.84 Fold Basal | –
6 | YAEGTFISDYSIAMEKEKQQDFVNWLLAQK-NH2 [GIP(1-14)(EKEK)(19-30)NH2] | 98.7 ± 1.1% | 80.6 ± 5.6 Fold Basal | –
7 | YAEGTFEKEEKEKEEKEQQDFVNWLLAQK-NH2 | 75.1 ± 2.7% | 84.9 ± 8.1 Fold Basal | –
8 | YAEGTFISDYSIAMQQDFVNWLLAQK-NH2 [GIP(1-14)(19-30)NH2] | 95.4 ± 0.7% | 127 ± 22 Fold Basal | –
9 | CC[C@H](C)[C@H](NC(=O)[C@H](CO)NC(=O)[C@H](Cc1ccc(O)cc1)NC(=O)[C@H](CC(=O)O)NC(=O)[C@H](CO)NC(=O)[C@@H](NC(=O)[C@H](Cc1ccccc1)NC(=O)[C@@H](NC(=O)CNC(=O)[C@H](CCC(=O)O)NC(=O)[C@H](C)NC(=O)[C@@H](N)Cc1ccc(O)cc1)[C@@H](C)O)[C@@H](C)CC)C(=O)N[C@@H](C)C(=O)N[C@@H](CCSC)C(=O)NCCCCCC(=O)NCCCCCC(=O)NCCCCCC(=O)N[C@@H](CCC(N)=O)C(=O)N[C@@H](CCC(N)=O)C(=O)N[C@@H](CC(=O)O)C(=O)N[C@@H](Cc1ccccc1)C(=O)N[C@H](C(=O)N[C@@H](CC(N)=O)C(=O)N[C@@H](Cc1c[nH]c2ccccc12)C(=O)N[C@@H](CC(C)C)C(=O)N[C@@H](CC(C)C)C(=O)N[C@@H](C)C(=O)N[C@@H](CCC(N)=O)C(=O)N[C@@H](CCCCN)C(N)=O)C(C)C [GlP(1-14)(Ahx)3(19-30)NH2] (H-YAEGTFISDYSIAM[Ahx][Ahx][Ahx]QQDFVNWLLAQK-NH2; N-terminus assumed) | 82.7 ± 3.2% | 49.5 ± 1.6 Fold Basal | –
10 | CC(C)C[C@H](NC(=O)[C@H](CC(C)C)NC(=O)[C@H](Cc1c[nH]c2ccccc12)NC(=O)[C@H](CC(N)=O)NC(=O)[C@@H](NC(=O)[C@H](Cc1ccccc1)NC(=O)[C@H](CC(=O)O)NC(=O)[C@H](CCC(N)=O)NC(=O)[C@H](CCC(N)=O)NC(=O)CCCCCNC(=O)CCCCCNC(=O)CCCCCNC(=O)[C@H](Cc1ccccc1)NC(=O)[C@@H](NC(=O)CNC(=O)[C@H](CCC(=O)O)NC(=O)[C@H](C)NC(=O)[C@@H](N)Cc1ccc(O)cc1)[C@@H](C)O)C(C)C)C(=O)N[C@@H](C)C(=O)N[C@@H](CCC(N)=O)C(=O)N[C@@H](CCCCN)C(N)=O [GIP(1-6)(Ahx)3(19-30)NH2] (H-YAEGTF[Ahx][Ahx][Ahx]QQDFVNWLLAQK-NH2; N-terminus assumed) | 67.1 ± 1% | 13.5 ± 1.5 Fold Basal | –
11 | YAEGTFAAAAQQDFVNWLLAQK-NH2 [GIP(l-6)(AAAA)(19-30)NH2] | 88.7 ± 3% | 7.21 ± 0.99 Fold Basal | –
12 | 1-7NH2: GIP fragment 1-7 amide (YAEGTFI-NH2) | – | – | Receptor Binding % Displacement at 10 μM [1]: −6.1 ± 3.4%
13 | CC[C@H](C)[C@H](NC(=O)[C@H](CCCCN)NC(=O)[C@@H](N)CC(=O)O)C(=O)N[C@@H](Cc1c[nH]cn1)C(=O)N[C@@H](CCC(N)=O)C(=O)N[C@@H](CCC(N)=O)C(=O)N[C@@H](CC(=O)O)C(=O)N[C@@H](Cc1ccccc1)C(=O)N[C@H](C(=O)N[C@@H](CC(N)=O)C(=O)N[C@@H](Cc1c[nH]c2ccccc12)C(=O)N[C@@H](CC(C)C)C(=O)N[C@@H](CC(C)C)C(=O)N[C@@H](C)C(=O)N[C@@H](CCC(N)=O)C(=O)N[C@@H](CCCCN)C(=O)NCC(=O)N[C@@H](CCCCN)C(=O)N[C@@H](CCCCN)C(=O)N[C@@H](CC(N)=O)C(=O)N[C@@H](CC(=O)O)C(=O)N[C@@H](Cc1c[nH]c2ccccc12)C(=O)N[C@@H](CCCCN)C(=O)N[C@@H](Cc1c[nH]cn1)C(=O)N[C@@H](CC(N)=O)C(=O)N[C@H](C(=O)N[C@H](C(=O)N[C@@H](CCC(N)=O)C(=O)O)[C@@H](C)O)[C@@H](C)CC)C(C)C [15-42OH] | – | – | cAMP Production (Fold Basal) 10 μM [2]: 1.02 ± 0.10 Fold Basal; cAMP Production (Fold Basal) 20 μM [2]: 1.01 ± 0.03 Fold Basal
14 | CC[C@H](C)[C@H](NC(=O)[C@H](CO)NC(=O)[C@H](Cc1ccc(O)cc1)NC(=O)[C@H](CC(=O)O)NC(=O)[C@H](CO)NC(=O)[C@@H](NC(=O)[C@H](Cc1ccccc1)NC(=O)[C@@H](NC(=O)CNC(=O)[C@H](CCC(=O)O)NC(=O)[C@H](C)NC(=O)[C@@H](N)Cc1ccc(O)cc1)[C@@H](C)O)[C@@H](C)CC)C(=O)N[C@@H](C)C(=O)N[C@@H](CCSC)C(=O)N[C@@H](CC(=O)O)C(=O)N[C@@H](CCCCN)C(=O)N[C@H](C(=O)N[C@@H](Cc1c[nH]cn1)C(=O)N[C@@H](CCC(N)=O)C(=O)N[C@@H](CCC(N)=O)C(=O)N[C@@H](CC(=O)O)C(=O)N[C@@H](Cc1ccccc1)C(=O)N[C@H](C(=O)N[C@@H](CC(N)=O)C(=O)N[C@@H](Cc1c[nH]c2ccccc12)C(=O)N[C@@H](CC(C)C)C(=O)N[C@@H](CC(C)C)C(=O)N[C@@H](C)C(=O)N[C@@H](CCC(N)=O)C(=O)N[C@@H](CCCCN)C(=O)NCC(=O)N[C@@H](CCCCN)C(=O)N[C@@H](CCCCN)C(=O)N[C@@H](CC(N)=O)C(=O)N[C@@H](CC(=O)O)C(=O)N[C@@H](Cc1c[nH]c2ccccc12)C(=O)N[C@@H](CCCCN)C(=O)N[C@@H](Cc1c[nH]cn1)C(=O)N[C@@H](CC(N)=O)C(=O)N[C@H](C(=O)N[C@H](C(=O)N[C@@H](CCC(N)=O)C(=O)O)[C@@H](C)O)[C@@H](C)CC)C(C)C)[C@@H](C)CC [GIP(1-42)OH, reference compound] | 100% | – | Receptor Binding % Displacement at 10 μM [1]: 100%
